Starred links: 1 amine or outer side, 2 acyl side, 3 side chain; linkers in the order of their positions; H or OH if unused. Non-standard residues stand in square brackets, D forms with d. Residues, ends and D or L forms follow the SMILES beside them. *: point of attachment. Dolaproine = CO[C@@H]([C@@H]1CCCN1)[C@@H](C)C(=O)O; X6 = O=C([C@H](N[*:1])[C@@H]1Cc2ccccc21)[*:2]; Dil = CC[C@H](C)[C@H](NC)[C@@H](CC(=O)O)OC; X7 = C[C@@]1(C(=O)[*:2])CCCCN1[*:1]; NMeαMePro = CN1CCC[C@@]1(C)C(=O)*; dαMePip = C[C@]1(C(=O)O)CCCCN1; αMeV = CC(C)[C@](C)(N)C(=O)O; X1 = CN1CCC[C@]1(C)C(=O)*; X4 = CN(C)C(C)(C)C(=O)*; Aib = CC(C)(N)C(=O)O; X3 = C1C2CC1(N*)C2
Key:
Assay in all cases: In vitro cell assay, MTS cell viability 96 hours after treatment
Assay type in all cases: cell-based
N87 (gastric cancer) = conditions: read-out: N87 GMEAN IC50, N87 cells; geometric mean; cytotoxic peptides
Summary of the method: (§1)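 MTS read-out 96 h post-treatment; viability as % of untreated control. ADCs or free drug, 3-fold serial dilution, 10 concentrations, duplicates.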

[1] = test system: MDA-MB-361-DYT2 (breast cancer); conditions: read-out: MDA-MB-361-DYT2 GMEAN IC50, MDA-MB-361-DYT2 cells; geometric mean; cytotoxic peptides
Summary of the method: as §1

BT474 (breast cancer) = conditions: Homo sapiens, BT-474, BT474 cells; geometric mean; cytotoxic peptides; read-out: BT474 GMEAN IC50
Summary of the method: as §1

Structure (SMILES)	IC50 (N87 (gastric cancer)) [nM]	IC50 [1] [nM]	IC50 (BT474 (breast cancer)) [nM]
CC[C@H](C)[C@@H]([C@@H](CC(=O)N1CCC[C@H]1[C@H](OC)[C@@H](C)C(=O)N[C@@H](Cc1ccc2c(c1)CCCN2)C(=O)OC)OC)N(C)C(=O)[C@@H](NC(=O)[C@@]1(C)CCCN1C)C(C)C [#200, 1,2-dimethyl-D-prolyl-N-[(3R,4S,5S)-3-methoxy-1-{(2S)-2-[(1R,2R)-1-methoxy-3-{[(2S)-1-methoxy-1-oxo-3-(1,2,3,4-tetrahydroquinolin-6-yl)propan-2-yl]amino}-2-methyl-3-oxopropyl]pyrrolidin-1-yl}-5-methyl-1-oxoheptan-4-yl]-N-methyl-L-valinamide]	0.029	0.017	0.048
CC[C@H](C)[C@@H]([C@@H](CC(=O)N1CCC[C@H]1[C@H](OC)[C@@H](C)C(=O)N[C@@H](Cc1ccccc1)C(=O)OC)OC)N(C)C(=O)[C@@H](NC(=O)[C@]1(C)CCCN1C)C(C)C [#209, 1,2-dimethyl-L-prolyl-N-[(3R,4S,5S)-3-methoxy-1-{(2S)-2-[(1R,2R)-1-methoxy-3-{[(2S)-1-methoxy-1-oxo-3-phenylpropan-2-yl]amino}-2-methyl-3-oxopropyl]pyrrolidin-1-yl}-5-methyl-1-oxoheptan-4-yl]-N-methyl-L-valinamide] (NMeαMePro-V[Dil][Dolaproine]F-OMe)	0.067	0.058	0.067
CC[C@H](C)[C@@H]([C@@H](CC(=O)N1CCC[C@H]1[C@H](OC)[C@@H](C)C(=S)N[C@@H](Cc1ccccc1)C(=O)O)OC)N(C)C(=O)[C@@H](NC(=O)C(C)(C)NC)C(C)C [#80, N,2-dimethylalanyl-N-[(3R,4S,5S)-1-{(2S)-2-[(1R,2R)-3-{[(1S)-1-carboxy-2-phenylethyl]amino}-1-methoxy-2-methyl-3-thioxopropyl]pyrrolidin-1-yl}-3-methoxy-5-methyl-1-oxoheptan-4-yl]-N-methyl-L-valinamide]	28.2	32.8	20.3
CC[C@H](C)[C@@H]([C@@H](CC(=O)N1CCC[C@H]1[C@H](OC)[C@@H](C)C(=O)N[C@@H](Cc1ccccc1)C(=O)OC)OC)N(C)C(=O)[C@@H](NC(=O)[C@@]1(C)CCCN1C)C(C)C [#236] (X1-V[Dil][Dolaproine]F-OMe)	0.023	0.01	0.02
CC[C@H](C)[C@@H]([C@@H](CC(=O)N1CCC[C@H]1[C@H](OC)[C@@H](C)C(=O)N[C@@H](Cc1ccccc1)C(=O)OC)OC)N(C)C(=O)[C@@H](NC(=O)[C@@](C)(N)C(C)C)C(C)C [#147, 3-methyl-L-isovalyl-N-{(1S,2R)-4-{(2S)-2-[(1R,2R)-3-{[(1S)-1-benzyl-2-methoxy-2-oxoethyl]amino}-1-methoxy-2-methyl-3-oxopropyl]pyrrolidin-1-yl}-2-methoxy-1-[(1S)-1-methylpropyl]-4-oxobutyl}-N-methyl-L-valinamide] (H-[αMeV]V[Dil][Dolaproine]F-OMe)	0.144	0.421	0.456
CC[C@H](C)[C@@H]([C@@H](CC(=O)N1CCC[C@H]1[C@H](OC)[C@@H](C)C(=S)N[C@@H](Cc1ccccc1)C(=O)OC)OC)N(C)C(=O)[C@@H](NC(=O)[C@@H](NC)C(C)C)C(C)C [#42, N-methyl-L-valyl-N-[(3R,4S,5S)-3-methoxy-1-{(2S)-2-[(1R,2R)-1-methoxy-3-{[(2S)-1-methoxy-1-oxo-3-phenylpropan-2-yl]amino}-2-methyl-3-thioxopropyl]pyrrolidin-1-yl}-5-methyl-1-oxoheptan-4-yl]-N-methyl-L-valinamide]	0.327	0.195	0.125
CC[C@H](C)[C@@H]([C@@H](CC(=O)N1CCC[C@H]1[C@H](OC)[C@@H](C)C(=O)N[C@@H](Cc1ccccc1)C(=O)O)OC)N(C)C(=O)[C@@H](NC(=O)C(C)(C)N(C)C)C(C)C [#229] (X4-V[Dil][Dolaproine]F-OH)	16.6	10.2	18.4
CC[C@H](C)[C@@H]([C@@H](CC(=O)N1CCC[C@H]1[C@H](OC)[C@@H](C)C(=O)NC12CC(C1)C2)OC)N(C)C(=O)[C@@H](NC(=O)C(C)(C)N)C(C)C [#221] (H-[Aib]V[Dil][Dolaproine]-X3)	87.9	65.4	32.4
CC[C@H](C)[C@@H]([C@@H](CC(=O)N1CCC[C@H]1[C@H](OC)[C@@H](C)C(=O)N[C@@H](Cc1ccccc1)c1nccs1)OC)N(C)C(=O)[C@@H](NC(=O)C(C)(C)CNC)C(C)C [#154, N˜2˜-[2,2-dimethyl-3-(methylamino)propanoyl]-N-{(1S,2R)-2-methoxy-4-{(2S)-2-[(1R,2R)-1-methoxy-2-methyl-3-oxo-3-{[(1S)-2-phenyl-1-(1,3-thiazol-2-yl)ethyl]amino}propyl]pyrrolidin-1-yl}-1-[(1S)-1-methylpropyl]-4-oxobutyl}-N-methyl-L-valinamide]	0.572	0.198	0.193
CC[C@H](C)[C@@H]([C@@H](CC(=O)N1CCC[C@H]1[C@H](OC)[C@@H](C)C(=S)N[C@@H](Cc1ccccc1)C(=O)OC)OC)N(C)C(=O)[C@@H](NC(=O)C(C)(C)NC)C(C)C [#79, N,2-dimethylalanyl-N-[(3R,4S,5S)-3-methoxy-1-{(2S)-2-[(1R,2R)-1-methoxy-3-{[(2S)-1-methoxy-1-oxo-3-phenylpropan-2-yl]amino}-2-methyl-3-thioxopropyl]pyrrolidin-1-yl}-5-methyl-1-oxoheptan-4-yl]-N-methyl-L-valinamide]	0.137	0.129	0.079
CC[C@H](C)[C@@H]([C@@H](CC(=O)N1CCC[C@H]1[C@H](OC)[C@@H](C)C(=O)N[C@@H](Cc1ccccc1)C(=O)OC)OC)N(C)C(=O)[C@@H](NC(=O)[C@@]1(F)CCNC1)C(C)C [#172, methyl N-{(2R,3R)-3-[(2S)-1-{(3R,4S,5S)-4-[(N-{[(3R)-3-fluoropyrrolidin-3-yl]carbonyl}-L-valyl)(methyl)amino]-3-methoxy-5-methylheptanoyl}pyrrolidin-2-yl]-3-methoxy-2-methylpropanoyl}-L-phenylalaninate]	0.144	0.086	0.057
CC[C@H](C)[C@@H]([C@@H](CC(=O)N1CCC[C@H]1[C@H](OC)[C@@H](C)C(=O)N[C@@H](C(=O)OC)[C@@H]1Cc2ccccc21)OC)N(C)C(=O)[C@@H](NC(=O)C(C)(C)N)C(C)C [#224] (H-[Aib]V[Dil][Dolaproine][X6]-OMe)	1.56	0.998	0.383
CC[C@H](C)[C@@H]([C@@H](CC(=O)N1CCC[C@H]1[C@H](OC)[C@@H](C)C(=O)N[C@@H](Cc1ccccc1)C(=O)O)OC)N(C)C(=O)[C@@H](NC(=O)[C@]1(C)CCCCN1)C(C)C [#162, N-{(2R,3R)-3-methoxy-3-[(2S)-1-{(3R,4S,5S)-3-methoxy-5-methyl-4-[methyl(N-{[(2S)-2-methylpiperidin-2-yl]carbonyl}-L-valyl)amino]heptanoyl}pyrrolidin-2-yl]-2-methylpropanoyl}-L-phenylalanine] (H-[X7]V[Dil][Dolaproine]F-OH)	21.6	27.8	31.4
CC[C@H](C)[C@@H]([C@@H](CC(=O)N1CCC[C@H]1[C@H](OC)[C@@H](C)C(=O)N[C@H](CN)Cc1ccccc1)OC)N(C)C(=O)[C@@H](NC(=O)[C@]1(C)CCCN1C)C(C)C [#246]	10.8	5.43	3.16
CC[C@H](C)[C@@H]([C@@H](CC(=O)N1CCC[C@H]1[C@H](OC)[C@@H](C)C(=S)N[C@@H](Cc1ccccc1)c1nccs1)OC)N(C)C(=O)[C@@H](NC(=O)C1(N)CCCC1)C(C)C [#30, N^2-[(1-aminocyclopentyl)carbonyl]-N-[(3R,4S,5S)-3-methoxy-1-{(2S)-2-[(1R,2R)-1-methoxy-2-methyl-3-{[(1S)-2-phenyl-1-(1,3-thiazol-2-yl)ethyl]amino}-3-thioxopropyl]pyrrolidin-1-yl}-5-methyl-1-oxoheptan-4-yl]-N-methyl-L-valinamide]	6.71	1.85	0.682
CC[C@H](C)[C@@H]([C@@H](CC(=O)N1CCC[C@H]1[C@H](OC)[C@@H](C)C(=O)N[C@@H](Cc1ccccc1)C(=O)O)OC)N(C)C(=O)[C@@H](NC(=O)[C@@]1(C)CCCCN1)C(C)C [#163, N-{(2R,3R)-3-methoxy-3-[(2S)-1-{(3R,4S,5S)-3-methoxy-5-methyl-4-[methyl(N-{[(2R)-2-methylpiperidin-2-yl]carbonyl}-L-valyl)amino]heptanoyl}pyrrolidin-2-yl]-2-methylpropanoyl}-L-phenylalanine] (H-[dαMePip]V[Dil][Dolaproine]F-OH)	72.7	99.4	≥ 100
CC[C@H](C)[C@@H]([C@@H](CC(=O)N1CCC[C@H]1[C@H](OC)[C@@H](C)C(=O)N[C@@H](Cc1ccccc1)C(=O)OC)OC)N(C)C(=O)[C@@H](NC(=O)C(C)(C)CNC)C(C)C [#155, methyl N-{(2R,3R)-3-[(2S)-1-{(3R,4S,5S)-4-[{N-[2,2-dimethyl-3-(methylamino)propanoyl]-L-valyl}(methyl)amino]-3-methoxy-5-methylheptanoyl}pyrrolidin-2-yl]-3-methoxy-2-methylpropanoyl}-L-phenylalaninate]	0.875	0.318	0.323
CC[C@H](C)[C@@H]([C@@H](CC(=O)N1CCC[C@H]1[C@H](OC)[C@@H](C)C(=O)NCCC1C=CC=CC=C1)OC)N(C)C(=O)[C@@H](NC(=O)[C@@]1(F)CCNC1)C(C)C [#184, N-[(3R,4S,5S)-1-{(2S)-2-[(1R,2R)-3-{[2-(cyclohepta-2,4,6-trien-1-yl)ethyl]amino}-1-methoxy-2-methyl-3-oxopropyl]pyrrolidin-1-yl}-3-methoxy-5-methyl-1-oxoheptan-4-yl]-N˜2˜-{[(3R)-3-fluoropyrrolidin-3-yl]carbonyl}-N-methyl-L-valinamide]	5.1	3.43	2.48

Source: patent publication US8828401B2, “Cytotoxic peptides and antibody drug conjugates thereof” (Pfizer Inc., priority 2011, dated 2014)
